Tests used:
[1] = target: Recombinant human Cbl-b (aa 36-427) (Homo sapiens, UniProt Q13191); experiment: Cbl-b Biochemical Assay (TR-FRET); details: read-out: TR-FRET hCbl-b IC50
[2] = test system: Jurkat (clone E6-1) cells with NFAT luciferase reporter; experiment: Jurkat reporter assay (NFAT Luciferase); format: cell-based; details: Homo sapiens; Jurkat NFAT luciferase reporter cells, anti-CD3 stimulation, 6 hr; read-out: Jurkat NFAT EC50
[3] = target: T1, Recombinant human c-Cbl (aa 47-435) (Homo sapiens, UniProt P22681); experiment: c-Cbl Biochemical Assay (TR-FRET); details: hc-Cbl Biochemical Assay (TR-FRET); read-out: TR-FRET hcCbl IC50
T1 sequence (P22681 47-435): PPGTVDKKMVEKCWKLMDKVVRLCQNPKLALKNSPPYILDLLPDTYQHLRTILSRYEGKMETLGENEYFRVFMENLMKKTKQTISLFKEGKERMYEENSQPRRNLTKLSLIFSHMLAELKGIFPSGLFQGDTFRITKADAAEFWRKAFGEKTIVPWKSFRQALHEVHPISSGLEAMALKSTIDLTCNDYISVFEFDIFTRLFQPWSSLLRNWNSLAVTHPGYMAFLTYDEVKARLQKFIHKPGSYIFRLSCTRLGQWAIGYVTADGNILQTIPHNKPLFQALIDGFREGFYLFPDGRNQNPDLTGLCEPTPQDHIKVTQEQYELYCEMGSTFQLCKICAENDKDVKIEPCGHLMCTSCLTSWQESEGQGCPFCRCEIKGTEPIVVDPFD

Recombinant human Cbl-b (aa 36-427), sequence (Q13191 36-427): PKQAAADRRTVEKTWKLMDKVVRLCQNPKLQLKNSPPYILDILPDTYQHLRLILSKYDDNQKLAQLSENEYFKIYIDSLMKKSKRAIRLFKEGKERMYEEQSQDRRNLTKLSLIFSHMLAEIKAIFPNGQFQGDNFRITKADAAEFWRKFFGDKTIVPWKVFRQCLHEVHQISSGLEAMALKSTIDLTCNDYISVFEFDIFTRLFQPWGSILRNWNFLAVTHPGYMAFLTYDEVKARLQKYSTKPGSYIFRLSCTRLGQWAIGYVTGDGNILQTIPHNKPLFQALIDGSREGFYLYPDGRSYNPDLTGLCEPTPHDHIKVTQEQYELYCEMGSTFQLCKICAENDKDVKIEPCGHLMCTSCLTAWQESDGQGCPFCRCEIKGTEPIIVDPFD

IC50 [1] [nM] | EC50 [2] [nM] | IC50 [3] [nM] | SMILES
< 200 | 200 to 1000 | 200 to 1000 | COCCNCc1cc2nc(-c3cccc(-c4ccc(F)cc4-c4nncn4C)c3)oc2cc1F [IR-1, N-((6-Fluoro-2-(4′-fluoro-2′-(4-methyl-4H-1,2,4-triazol-3-yl)-[1,1′-biphenyl]-3-yl)benzo[d]oxazol-5-yl)methyl)-2-methoxyethan-1-amine]
< 200 | 200 to 1000 | < 200 | Cn1cnnc1-c1cc(F)ccc1-c1cccc(-c2nc3cc(CN4CC[C@@H](C#N)C4)cc(C(F)(F)F)c3o2)c1 [DR-2, (R)-1-((2-(4′-Fluoro-2′-(4-methyl-4H-1,2,4-triazol-3-yl)-[1,1′-biphenyl]-3-yl)-7-(trifluoromethyl)benzo[d]oxazol-5-yl)methyl)pyrrolidine-3-carbonitrile]
< 200 | 200 to 1000 | 1000 to 10000 | C[C@H]1CCCN(Cc2cc(C(F)(F)F)c3[nH]c(-c4cccc(-c5ccc(F)cc5-c5nncn5C)c4)nc3c2)C1 [BO-2, (S)-2-(4′-Fluoro-2′-(4-methyl-4H-1,2,4-triazol-3-yl)-[1,1′-biphenyl]-3-yl)-5-((3-methylpiperidin-1-yl)methyl)-7-(trifluoromethyl)-1H-benzo[d]imidazole]
< 200 | < 200 | < 200 | Cn1cnnc1-c1cc(F)ccc1-c1cccc(-c2nc3cc(CNC[C@H]4CCCO4)cc(C(F)(F)F)c3o2)c1 [EU-2, (R)-1-(2-(4′-Fluoro-2′-(4-methyl-4H-1,2,4-triazol-3-yl)-[1,1′-biphenyl]-3-yl)-7-(trifluoromethyl)benzo[d]oxazol-5-yl)-N-((tetrahydrofuran-2-yl)methyl)methanamine]
< 200 | < 200 | < 200 | Cn1cnnc1-c1cc(F)ccc1-c1cc(-c2nc3cc(CNCC4(O)CCC4)c(F)c(F)c3o2)nc(C2CC2)c1 [AGA-1, 1-({[(2-{6-Cyclopropyl-4-[4-fluoro-2-(4-methyl-1,2,4-triazol-3-yl)phenyl]pyridin-2-yl}-6,7-difluoro-1,3-benzoxazol-5-yl)methyl]amino}methyl)cyclobutan-1-ol]
< 200 | < 200 | < 200 | Cn1cnnc1-c1cc(F)ccc1-c1cccc(-c2nc3cc(CNCC4CC4)cc(C(F)(F)F)c3o2)c1 [FB-2, 1-Cyclopropyl-N-((2-(4′-fluoro-2′-(4-methyl-4H-1,2,4-triazol-3-yl)-[1,1′-biphenyl]-3-yl)-7-(trifluoromethyl)benzo[d]oxazol-5-yl)methyl)methanamine]
< 200 | < 200 | < 200 | COCCNCc1ccc2oc(-c3cc(-c4ccc(Cl)cc4-c4nncn4C)cc(C4CC4)n3)nc2c1 [AEM-1]
< 200 | < 200 | < 200 | COCCNCc1cc2nc(-c3cc(-c4ccc(F)cc4-c4nncn4C)cc(C4CC4)n3)oc2c(F)c1F [AGB-1, [(2-{6-Cyclopropyl-4-[4-fluoro-2-(4-methyl-1,2,4-triazol-3-yl)phenyl]pyridin-2-yl}-6,7-difluoro-1,3-benzoxazol-5-yl)methyl](2-methoxyethyl)amine]
< 200 | < 200 | < 200 | Cn1cnnc1-c1cc(F)ccc1-c1cccc(-c2nc3cc(CNCC(C)(C)O)cc(F)c3o2)c1 [JN-1, 1-(((7-Fluoro-2-(4′-fluoro-2′-(4-methyl-4H-1,2,4-triazol-3-yl)-[1,1′-biphenyl]-3-yl)benzo[d]oxazol-5-yl)methyl)amino)-2-methylpropan-2-ol]
< 200 | 200 to 1000 | < 200 | Cn1cnnc1-c1cc(F)ccc1-c1cccc(-c2nc3cc(CNCC4(F)CCC4)cc(C(F)(F)F)c3o2)c1 [HW-2, 1-(2-(4′-Fluoro-2′-(4-methyl-4H-1,2,4-triazol-3-yl)-[1,1′-biphenyl]-3-yl)-7-(trifluoromethyl)benzo[d]oxazol-5-yl)-N-((1-fluorocyclobutyl)methyl)methanamine]
< 200 | 200 to 1000 | 1000 to 10000 | C[C@H](c1cc(C(F)(F)F)c2oc(-c3cccc(C4(Cc5nncn5C)COC4)c3)nc2c1)N1CCC2(CC2)C1 [AAD-1, 5-[(1R)-1-{5-azaspiro[2.4]heptan-5-yl}ethyl]-2-(3-{3-[(4-methyl-1,2,4-triazol-3-yl)methyl]oxetan-3-yl}phenyl)-7-(trifluoromethyl)-1,3-benzoxazole]
< 200 | 200 to 1000 | < 200 | C[C@@H]1CCC[C@@H](NCc2cc(C(F)(F)F)c3oc(-c4cccc(-c5ccc(F)cc5-c5nncn5C)c4)nc3c2)C1 (racemic) [FV-3, rac-(1R,3R)—N-((2-(4′-fluoro-2′-(4-methyl-4H-1,2,4-triazol-3-yl)-[1,1′-biphenyl]-3-yl)-7-(trifluoromethyl)benzo[d]oxazol-5-yl)methyl)-3-methylcyclohexan-1-amine]
< 200 | < 200 | < 200 | CC(NCC1(O)CCC1)c1cc(F)c2oc(-c3cc(-c4ccc(F)cc4-c4nncn4C)cc(C4CC4)n3)nc2c1 (stereo in doubt) [AFR-1, 1-({[(1R)-1-(2-{6-Cyclopropyl-4-[4-fluoro-2-(4-methyl-1,2,4-triazol-3-yl)phenyl]pyridin-2-yl}-7-fluoro-1,3-benzoxazol-5-yl)ethyl]amino}methyl)cyclobutan-1-ol]
< 200 | 1000 to 10000 | 200 to 1000 | Cn1cnnc1-c1cc(F)ccc1-c1cccc(-c2nc3cc(NCCN4CC(F)(F)C4)cc(C(F)(F)F)c3o2)c1 [IF-2, N-(2-(3,3-Difluoroazetidin-1-yl)ethyl)-2-(4′-fluoro-2′-(4-methyl-4H-1,2,4-triazol-3-yl)-[1,1′-biphenyl]-3-yl)-7-(trifluoromethyl)benzo[d]oxazol-5-amine]
< 200 | < 200 | < 200 | COc1cc(CN[C@@H](C)C2CCC2)cc2nc(-c3cccc(-c4ccc(F)cc4-c4nncn4C)c3)oc12 [GF-2, (S)-1-Cyclobutyl-N-((2-(4′-fluoro-2′-(4-methyl-4H-1,2,4-triazol-3-yl)-[1,1′-biphenyl]-3-yl)-7-methoxybenzo[d]oxazol-5-yl)methyl)ethan-1-amine]
< 200 | < 200 | < 200 | Cn1cnnc1-c1cc(C#N)ccc1-c1cccc(-c2nc3cc(CN[C@@H]4CCC[C@@H]4O)cc(C(F)(F)F)c3o2)c1 [CP-4, 3′-(5-((((1R,2S)-2-Hydroxycyclopentyl)amino)methyl)-7-(trifluoromethyl)benzo[d]oxazol-2-yl)-2-(4-methyl-4H-1,2,4-triazol-3-yl)-[1,1′-biphenyl]-4-carbonitrile]
1000 to 10000 | 1000 to 10000 | 1000 to 10000 | CCNc1cc(-c2ccc(F)cc2-c2nncn2C)cc(-c2nc3cc(C(=O)OC)cc(C(F)(F)F)c3o2)n1 [AEK-2, Methyl 2-[6-(ethylamino)-4-[4-fluoro-2-(4-methyl-1,2,4-triazol-3-yl)-phenyl]-pyridin-2-yl]-7-(trifluoromethyl)-1,3-benzoxazole-5-carboxylate]
< 200 | < 200 | < 200 | Cn1cnnc1-c1cc(F)ccc1-c1cc(-c2nc3cc(CNCC(C)(C)O)cc(C(F)(F)F)c3o2)cc(C2CC2)c1 [JL-1, 1-(((2-(5-Cyclopropyl-4′-fluoro-2′-(4-methyl-4H-1,2,4-triazol-3-yl)-[1,1′-biphenyl]-3-yl)-7-(trifluoromethyl)benzo[d]oxazol-5-yl)methyl)amino)-2-methylpropan-2-ol]

From patent US20250163038A1, “CBL-B MODULATORS AND USES THEREOF” (Nimbus Clio, Inc., priority 2021, published 2025)
